Assay results taken from ChEMBL document CHEMBL3272201, “Synthesis of tetrazole ribonucleosides and their evaluation as antiviral agents” (J Med Chem, 1976).
Activity calls are given as the source filed them. The rule behind the calls is not given here.

Tests used:
Assay type in all cases: functional, organism-based
Influenza A virus [1] = assay: (§1) Antiviral activity against Influenza A virus (A2/Asian/J305) infected in Swiss albino mouse assessed as increase in host survival at 25 mg/kg, ip administered 4 hrs before infection, 1 hr after infection followed by twice daily for next 6 days for total of 14 treatments measured on 21st day post-infection; parameters: dose 25 mg/kg
Influenza A virus [2] = assay: as §1, with “20” for “25”; parameters: dose 20 mg/kg
Influenza A virus [3] = assay: as §1, with “100” for “25”; parameters: dose 100 mg/kg

Structure (SMILES)	Activity (Influenza A virus [3])	other results
NC(=O)Cc1nnnn1[C@@H]1O[C@H](CO)[C@@H](O)[C@H]1O	–	Activity (Influenza A virus [1]): inactive
NC(=O)c1ncn([C@@H]2O[C@H](CO)[C@@H](O)[C@H]2O)n1	–	Activity (Influenza A virus [2]): Active
OC[C@H]1O[C@@H](n2cnnn2)[C@H](O)[C@@H]1O	inactive	–
NC(=O)c1nnnn1[C@@H]1O[C@H](CO)[C@@H](O)[C@H]1O	inactive	–
